{"source": "patent US10428066B2", "about": "“Imidazo[4,5-C]pyridine and pyrrolo[2,3-C]pyridine derivatives as SSAO inhibitors” (PROXIMAGEN, LLC, priority 2013, dated 2019)", "target": "purified recombinantly expressed human SSAO (Homo sapiens (Human), UniProt Q16853)", "sequence (Q16853 29-763)": "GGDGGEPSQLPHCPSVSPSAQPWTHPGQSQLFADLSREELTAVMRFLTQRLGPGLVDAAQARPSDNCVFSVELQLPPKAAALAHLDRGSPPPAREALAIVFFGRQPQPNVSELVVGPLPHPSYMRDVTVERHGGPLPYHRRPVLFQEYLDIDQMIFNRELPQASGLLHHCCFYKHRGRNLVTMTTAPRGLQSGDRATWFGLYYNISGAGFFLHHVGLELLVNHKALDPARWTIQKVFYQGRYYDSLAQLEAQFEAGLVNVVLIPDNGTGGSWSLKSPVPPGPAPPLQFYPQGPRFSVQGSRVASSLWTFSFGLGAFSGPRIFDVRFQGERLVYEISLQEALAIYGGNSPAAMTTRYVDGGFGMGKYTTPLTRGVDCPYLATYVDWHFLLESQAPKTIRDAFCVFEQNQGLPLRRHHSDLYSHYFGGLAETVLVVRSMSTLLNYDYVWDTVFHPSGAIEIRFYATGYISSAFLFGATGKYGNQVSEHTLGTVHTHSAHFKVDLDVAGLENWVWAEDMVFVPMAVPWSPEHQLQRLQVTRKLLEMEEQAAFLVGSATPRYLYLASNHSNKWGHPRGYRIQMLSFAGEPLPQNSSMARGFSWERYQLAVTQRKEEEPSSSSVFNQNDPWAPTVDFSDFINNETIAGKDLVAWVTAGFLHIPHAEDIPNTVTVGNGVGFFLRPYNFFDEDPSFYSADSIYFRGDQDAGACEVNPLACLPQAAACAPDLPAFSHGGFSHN", "assay": "SSAO enzyme inhibition assay (HRP-coupled hydrogen peroxide detection or 14C-benzaldehyde detection, benzylamine substrate)", "format": "biochemical", "conditions": "human recombinant SSAO, RT", "description": "All primary assays were performed at RT. with purified recombinantly expressed human SSAO. Enzyme was prepared essentially as described in Öhman et al. (Protein Expression and Purification 46 (2006) 321-331). In addition, secondary- and selectivity assays were performed using SSAO prepared from various tissues or purified rat recombinant SSAO. The enzyme activity was assayed with benzylamine as substrate by measuring either benzaldehyde production, using ^14C-labeled substrate, or by utilizing the production of hydrogen peroxide in a horseradish peroxidase (HRP) coupled reaction. Briefly, test compounds were dissolved in dimethyl sulfoxide (DMSO) to a concentration of 10 mM. Dose-response measurements were assayed by either creating 1:10 serial dilutions in DMSO to produce a 7 point curve or by making 1:3 serial dilutions in DMSO to produce 11 point curves.\nIn a horseradish peroxidase (HRP) coupled reaction, hydrogen peroxide oxidation of 10-acetyl-3,7-dihydroxyphenoxazine produced resorufin, which is a highly fluorescent compound (Zhout and Panchuk-Voloshina. Analytical Biochemistry 253 (1997) 169-174; Amplex® Red Hydrogen Peroxide/peroxidase Assay kit, Invitrogen A22188). Enzyme and compounds in 50 mM sodium phosphate, pH 7.4 were set to pre-incubate in flat-bottomed microtiter plates for approximately 15 min before initiating the reaction by addition of a mixture of HRP, benzylamine and Amplex reagent. Benzylamine concentration was fixed at a concentration corresponding to the Michaelis constant, determined using standard procedures. Fluorescence intensity was then measured at several time points during 1-2 h, exciting at 544 nm and reading the emission at 590 nm. For the human SSAO assay final concentrations of the reagents in the assay wells were: SSAO enzyme 1 ug/ml, benzylamine 100 uM, Amplex reagent 20 uM, HRP 0.1 U/mL and varying concentrations of test compound. The inhibition was measured as % decrease of the signal compared to a control without inhibitor (only diluted DMSO). The background signal from a sample containing no SSAO enzyme was subtracted from all data points. Data was fitted to a four parameter logistic model and IC50 values were calculated using the GraphPad Prism 4 or XLfit 4 programs.\nSSAO activity was assayed using 14C-labeled benzylamine and analysed by measuring radioactive benzaldehyde. In a white 96-well optiplate (Packard), 20 uL of diluted test compound was pre-incubated at room temperature with 20 uL SSAO enzyme for approximately 15 min with continuous agitation. All dilutions were made with PBS. The reaction was initiated by adding 20 uL of the benzylamine substrate solution containing [7-14C] Benzylamine hydrochloride (CFA589, GE Healthcare). The plate was incubated for 1 h as above after which the reaction was stopped by acidification (10 uL 1M aq HCl). Then 90 uL Micro Scint-E solution (Perkin-Elmer) was added to each well and the plate was continuously mixed for 15 min. Phase separation occurred instantly and activity was read in a Topcount scintillation counter (Perkin-Elmer). In the final reaction well, the human recombinant SSAO concentration was 10 ug/ml. In order to optimize sensitivity, the substrate concentration was decreased as compared to the HRP coupled assay in order to get a higher fraction of radioactive product. In the human SSAO assay, benzylamine concentration was 40 uM (0.2 uCi/mL). Data was analysed as above.", "note": "Where a name gives a salt, the structure may show the parent alone.", "data": [{"smiles": "Clc1ccc(-n2c(-c3cccnc3)nc3ccncc32)cc1", "note": "[Example 1, 3-[3-(4-Chlorophenyl)-3H-imidazo[4,5-c]pyridin-2-yl]pyridine]", "values": [{"measurement": "IC50", "result": "200 to 1200", "unit": "nM"}]}, {"smiles": "Clc1ccc(-n2c(-c3ccncc3)nc3ccncc32)cc1", "note": "[Example 2, 4-[3-(4-Chlorophenyl)-3H-imidazo[4,5-c]pyridin-2-yl]pyridine]", "values": [{"measurement": "IC50", "result": "200 to 1200", "unit": "nM"}]}, {"smiles": "Clc1ccc(-n2c(-c3ccc(CN4CCOCC4)nc3)nc3ccncc32)cc1", "note": "[Example 3, 4-({5-[3-(4-Chlorophenyl)-3H-imidazo[4,5-c]pyridin-2-yl]pyridin-2-yl}methyl)morpholine]", "values": [{"measurement": "IC50", "result": "50 to 200", "unit": "nM"}]}, {"smiles": "Clc1ccc(-n2c(-c3cnc(N4CCOCC4)cn3)nc3ccncc32)cc1", "note": "[Example 5, 4-{5-[3-(4-Chlorophenyl)-3H-imidazo[4,5-c]pyridin-2-yl]pyrazin-2-yl}morpholine]", "values": [{"measurement": "IC50", "result": "50 to 200", "unit": "nM"}]}, {"smiles": "O=C(c1ccc(-c2nc3ccncc3n2-c2ccc(Cl)cc2)cn1)N1CCOCC1", "note": "[Example 6, 4-({5-[3-(4-Chlorophenyl)-3H-imidazo[4,5-c]pyridin-2-yl]pyridin-2-yl}carbonyl)morpholine]", "values": [{"measurement": "IC50", "result": "200 to 1200", "unit": "nM"}]}, {"smiles": "Clc1ccc(-n2c(-c3cnc(NC4CCOCC4)cn3)nc3ccncc32)cc1", "note": "[Example 7, 5-[3-(4-Chlorophenyl)-3H-imidazo[4,5-c]pyridin-2-yl]-N-(oxan-4-yl)pyrazin-2-amine]", "values": [{"measurement": "IC50", "result": "50 to 200", "unit": "nM"}]}, {"smiles": "Fc1ccc(-n2c(-c3cnc(NC4CC4)nc3)nc3ccncc32)cc1", "note": "[Example 10, N-Cyclopropyl-5-[3-(4-fluorophenyl)-3H-imidazo[4,5-c]pyridin-2-yl]pyrimidin-2-amine]", "values": [{"measurement": "IC50", "result": "50 to 200", "unit": "nM"}]}, {"smiles": "O=C1CN(c2ncc(-c3nc4ccncc4n3-c3ccc(F)cc3)cn2)CCN1", "note": "[Example 12, 4-{5-[3-(4-Fluorophenyl)-3H-imidazo[4,5-c]pyridin-2-yl]pyrimidin-2-yl}piperazin-2-one]", "values": [{"measurement": "IC50", "result": "50 to 200", "unit": "nM"}]}, {"smiles": "O=C(NC1CC1)c1ccc(-c2nc3ccncc3n2-c2ccc(Cl)cc2)cn1", "note": "[Example 14, 5-[3-(4-Chlorophenyl)-3H-imidazo[4,5-c]pyridin-2-yl]-N-cyclopropylpyridine-2-carboxamide]", "values": [{"measurement": "IC50", "result": "200 to 1200", "unit": "nM"}]}, {"smiles": "Fc1ccc(-n2c(-c3ccc(C4CCOCC4)nn3)nc3ccncc32)cc1", "note": "[Example 15, 3-[3-(4-Fluorophenyl)-3H-imidazo[4,5-c]pyridin-2-yl]-6-(oxan-4-yl)pyridazine]", "values": [{"measurement": "IC50", "result": "50 to 200", "unit": "nM"}]}, {"smiles": "CS(=O)(=O)Nc1ccc(-c2nc3ccncc3n2-c2ccc(Cl)cc2)cn1", "note": "[Example 16, N-{5-[3-(4-Chlorophenyl)-3H-imidazo[4,5-c]pyridin-2-yl]pyridin-2-yl}methanesulfonamide]", "values": [{"measurement": "IC50", "result": "200 to 1200", "unit": "nM"}]}, {"smiles": "Clc1ccc(-n2c(-c3csc(N4CCNCC4)n3)nc3ccncc32)cc1", "note": "[Example 17, 1-{4-[3-(4-Chlorophenyl)-3H-imidazo[4,5-c]pyridin-2-yl]-1,3-thiazol-2-yl}piperazine dihydrochloride]", "values": [{"measurement": "IC50", "result": "200 to 1200", "unit": "nM"}]}, {"smiles": "Clc1ccc(-n2c(-c3cnc(N4CCNCC4)o3)nc3ccncc32)cc1", "note": "[Example 18, 1-{5-[3-(4-Chlorophenyl)-3H-imidazo[4,5-c]pyridin-2-yl]-1,3-oxazol-2-yl}piperazine dihydrochloride]", "values": [{"measurement": "IC50", "result": "50 to 200", "unit": "nM"}]}, {"smiles": "Clc1ccc(-n2c(-c3cnc(N4CCNCC4)s3)nc3ccncc32)cc1", "note": "[Example 19, 1-{5-[3-(4-Chlorophenyl)-3H-imidazo[4,5-c]pyridin-2-yl]-1,3-thiazol-2-yl}piperazine]", "values": [{"measurement": "IC50", "result": "50 to 200", "unit": "nM"}]}, {"smiles": "Fc1ccc(-n2c(-c3cnc(NC4CCOCC4)nc3)nc3ccncc32)cc1", "note": "[Example 20, 5-[3-(4-Fluorophenyl)-3H-imidazo[4,5-c]pyridin-2-yl]-N-(oxan-4-yl)pyrimidin-2-amine]", "values": [{"measurement": "IC50", "result": "50 to 200", "unit": "nM"}]}, {"smiles": "Cc1nc(N2CCOCC2)ncc1-c1nc2ccncc2n1-c1ccc(F)cc1", "note": "[Example 26, 4-{5-[3-(4-Fluorophenyl)-3H-imidazo[4,5-c]pyridin-2-yl]-4-methylpyrimidin-2-yl}morpholine]", "values": [{"measurement": "IC50", "result": "50 to 200", "unit": "nM"}]}, {"smiles": "COc1nc(N2CCOCC2)ccc1-c1nc2ccncc2n1-c1ccc(F)cc1", "note": "[Example 28, 4-{5-[3-(4-Fluorophenyl)-3H-imidazo[4,5-c]pyridin-2-yl]-6-methoxypyridin-2-yl}morpholine]", "values": [{"measurement": "IC50", "result": "50 to 200", "unit": "nM"}]}, {"smiles": "Cc1cc(N2CCOCC2)nc(C)c1-c1nc2ccncc2n1-c1ccc(F)cc1", "note": "[Example 29, 4-{5-[3-(4-Fluorophenyl)-3H-imidazo[4,5-c]pyridin-2-yl]-4,6-dimethylpyridin-2-yl}morpholine]", "values": [{"measurement": "IC50", "result": "200 to 1200", "unit": "nM"}]}, {"smiles": "Fc1ccc(-n2c(-c3cnc(C4CC4)nc3)nc3ccncc32)cc1", "note": "[Example 30, 2-Cyclopropyl-5-[3-(4-fluorophenyl)-3H-imidazo[4,5-c]pyridin-2-yl]pyrimidine]", "values": [{"measurement": "IC50", "result": "200 to 1200", "unit": "nM"}]}, {"smiles": "Nc1ncc(-c2nc3ccncc3n2-c2ccc(Cl)cc2)cn1", "note": "[Example 31, 5-[3-(4-Chlorophenyl)-3H-imidazo[4,5-c]pyridin-2-yl]pyrimidin-2-amine]", "values": [{"measurement": "IC50", "result": "200 to 1200", "unit": "nM"}]}, {"smiles": "Cn1cc(-c2nc3ccncc3n2-c2ccc(Cl)cc2)ccc1=O", "note": "[Example 33, 5-[3-(4-Chlorophenyl)-3H-imidazo[4,5-c]pyridin-2-yl]-1-methyl-1,2-dihydropyridin-2-one]", "values": [{"measurement": "IC50", "result": "200 to 1200", "unit": "nM"}]}, {"smiles": "O=c1cc(-c2nc3ccncc3n2-c2ccc(Cl)cc2F)cc[nH]1", "note": "[Example 34, 4-[3-(4-Chloro-2-fluorophenyl)-3H-imidazo[4,5-c]pyridin-2-yl]-1,2-dihydropyridin-2-one]", "values": [{"measurement": "IC50", "result": "50 to 200", "unit": "nM"}]}, {"smiles": "O=c1ccc(-c2nc3ccncc3n2-c2ccc(Cl)cc2F)c[nH]1", "note": "[Example 35, 5-[3-(4-Chloro-2-fluorophenyl)-3H-imidazo[4,5-c]pyridin-2-yl]-1,2-dihydropyridin-2-one]", "values": [{"measurement": "IC50", "result": "200 to 1200", "unit": "nM"}]}, {"smiles": "Cc1ccc(-n2c(-c3cnc(N4C[C@@H](C)O[C@@H](C)C4)nc3)nc3ccncc32)nc1", "note": "[Example 36, (2R,6S)-2,6-Dimethyl-4-{5-[3-(5-methylpyridin-2-yl)-3H-imidazo[4,5-c]pyridin-2-yl]pyrimidin-2-yl}morpholine]", "values": [{"measurement": "IC50", "result": "50 to 200", "unit": "nM"}]}, {"smiles": "CC(C)OCCNc1ncc(-c2nc3ccncc3n2-c2ccc(F)cc2)cn1", "note": "[Example 38, 5-[3-(4-Fluorophenyl)-3H-imidazo[4,5-c]pyridin-2-yl]-N-[2-(propan-2-yloxy)ethyl]pyrimidin-2-amine]", "values": [{"measurement": "IC50", "result": "50 to 200", "unit": "nM"}]}, {"smiles": "CN1CCN(c2ncc(-c3nc4ccncc4n3-c3ccc(F)cc3)cn2)CC1=O", "note": "[Example 40, 4-{5-[3-(4-Fluorophenyl)-3H-imidazo[4,5-c]pyridin-2-yl]pyrimidin-2-yl}-1-methylpiperazin-2-one]", "values": [{"measurement": "IC50", "result": "50 to 200", "unit": "nM"}]}, {"smiles": "CCOCCNc1ncc(-c2nc3ccncc3n2-c2ccc(F)cc2)cn1", "note": "[Example 42, N-(2-Ethoxyethyl)-5-[3-(4-fluorophenyl)-3H-imidazo[4,5-c]pyridin-2-yl]pyrimidin-2-amine]", "values": [{"measurement": "IC50", "result": "50 to 200", "unit": "nM"}]}, {"smiles": "Clc1ccc(-n2c(-c3cnc[nH]3)nc3ccncc32)cc1", "note": "[Example 44, 5-[3-(4-Chlorophenyl)-3H-imidazo[4,5-c]pyridin-2-yl]-1H-imidazole]", "values": [{"measurement": "IC50", "result": "200 to 1200", "unit": "nM"}]}, {"smiles": "CN1CCN(Cc2cccc(-c3nc4ccncc4n3-c3ccc(Cl)cc3)c2)CC1", "note": "[Example 45, 1-({3-[3-(4-Chlorophenyl)-3H-imidazo[4,5-c]pyridin-2-yl]phenyl}methyl)-4-methylpiperazine; formic acid]", "values": [{"measurement": "IC50", "result": "200 to 1200", "unit": "nM"}]}, {"smiles": "Cc1ccc(-n2c(-c3cnc(N4CCOCC4)nc3)nc3ccncc32)c(F)c1", "note": "[Example 53, 4-{5-[3-(2-Fluoro-4-methylphenyl)-3H-imidazo[4,5-c]pyridin-2-yl]pyrimidin-2-yl}morpholine]", "values": [{"measurement": "IC50", "result": "200 to 1200", "unit": "nM"}]}, {"smiles": "Fc1ccc(-n2c(-c3ccc(N4CCOCC4)nc3)nc3ccncc32)cc1", "note": "[Example 54, 4-{5-[3-(4-Fluorophenyl)-3H-imidazo[4,5-c]pyridin-2-yl]pyridin-2-yl}morpholine]", "values": [{"measurement": "IC50", "result": "200 to 1200", "unit": "nM"}]}, {"smiles": "Fc1ccc(-n2c(-c3cnc(N4CCOCC4)nc3)nc3ccncc32)c(Cl)c1", "note": "[Example 56, 4-{5-[3-(2-Chloro-4-fluorophenyl)-3H-imidazo[4,5-c]pyridin-2-yl]pyrimidin-2-yl}morpholine]", "values": [{"measurement": "IC50", "result": "200 to 1200", "unit": "nM"}]}, {"smiles": "Cc1ccc(-n2c(-c3cnc(N4CCOCC4)nc3)nc3ccncc32)cc1", "note": "[Example 57, 4-{5-[3-(4-Methylphenyl)-3H-imidazo[4,5-c]pyridin-2-yl]pyrimidin-2-yl}morpholine]", "values": [{"measurement": "IC50", "result": "50 to 200", "unit": "nM"}]}]}
